Structures are written as SMILES.

The assay relates to 60 cancer cell lines. Put plainly: NCI five-dose level screening test, second stage (GI50, TGI, LC50). Type of assay: cell-based. The following applies: for Subpanel MID^b (average sensitivity of all cell line of a particular subpanel) / MID^a (average sensitivity of all cell line): GI50; for MID^a (average sensitivity of all cell line): all cell lines. The source says: From the results, compounds SJ-3 (NSC 772864) and SJ-10 (NSC 772862) were selected by NCI for a five-dose level screening test and the mean growth percentage of the 60 cancer cell lines for the two compounds are 62.4 and −14.37, respectively. […] A summary of the NCI data provides information on the inhibition effect of various compound in different cancer cell lines (FIGS. 3 to 16 and Tables 3 to 8). […] Table 9 indicates the GI50, TGI and LC50 of the NCI data of TC-XCl, SJ-3 and SJ-10 NCI.

[1] abbreviates: Non-Small Cell Lung Cancer subpanel.

For the compound `CCN(CC)CCNc1nc2ccccc2c2c1-c1ccc(Cl)cc1C2=O` [SJ-3, 6-(2-(Diethylamino)ethylamino)-9-chloro-11H-indeno[1,2-c]quinolin-11-one], the “MID^a (average sensitivity of all cell line)” value amounted to 14.306 µM. For the same compound, where the note is “Breast Cancer subpanel”, the “Selectivity ratio (MID^a:MID^b)” value is listed as 1.159 and the “Subpanel MID^b (average sensitivity of all cell line of a particular subpanel)” value (from here on “Subpanel MID^b”) stood at 12.345 µM. In addition, where the note is “CNS Cancer subpanel”, the “Selectivity ratio (MID^a:MID^b)” value is given as 0.962 and the “Subpanel MID^b” value turned out to be 14.875 µM. Under “Colon Cancer subpanel”, the “Selectivity ratio (MID^a:MID^b)” value is 0.778 and the “Subpanel MID^b” value is 18.400 µM. For the setting “Leukemia subpanel”, the “Selectivity ratio (MID^a:MID^b)” value came to 1.475 and the “Subpanel MID^b” value was found to be 9.696 µM. In addition, for the setting “Melanoma subpanel”, the “Selectivity ratio (MID^a:MID^b)” value stood at 0.914 and the “Subpanel MID^b” value turned out to be 15.654 µM. Under setting [1], the “Selectivity ratio (MID^a:MID^b)” value was found to be 1.210 and the “Subpanel MID^b” value amounted to 11.819 µM. Where the note is “Ovarian Cancer subpanel”, the “Selectivity ratio (MID^a:MID^b)” value stood at 0.820 and the “Subpanel MID^b” value was 17.448 µM. For the setting “Prostate Cancer subpanel”, the “Selectivity ratio (MID^a:MID^b)” value worked out at 0.914 and the “Subpanel MID^b” value stood at 15.650 µM. Moreover, where the note is “Renal Cancer subpanel”, the “Selectivity ratio (MID^a:MID^b)” value came out at 1.124 and the “Subpanel MID^b” value was found to be 12.733 µM.
For `O=C1c2cc(Cl)ccc2-c2c(N3CCNCC3)nc3ccccc3c21` [SJ-10, 9-Chloro-6-(piperazin-1-yl)-11H-indeno[1,2-c]quinolin-11-one], the “MID^a (average sensitivity of all cell line)” value was 10.498 µM. For the setting “Breast Cancer subpanel”, the “Selectivity ratio (MID^a:MID^b)” value is reported as 1.541 and the “Subpanel MID^b” value came out at 6.813 µM. For the same compound, for the setting “CNS Cancer subpanel”, the “Selectivity ratio (MID^a:MID^b)” value turned out to be 1.304 and the “Subpanel MID^b” value was found to be 8.053 µM. For the same compound, where the note is “Colon Cancer subpanel”, the “Selectivity ratio (MID^a:MID^b)” value came out at 1.075 and the “Subpanel MID^b” value came to 9.763 µM. Where the note is “Leukemia subpanel”, the “Selectivity ratio (MID^a:MID^b)” value is 0.954 and the “Subpanel MID^b” value is 11.000 µM. For the setting “Melanoma subpanel”, the “Selectivity ratio (MID^a:MID^b)” value turned out to be 0.528 and the “Subpanel MID^b” value was 19.894 µM. Moreover, under setting [1], the “Selectivity ratio (MID^a:MID^b)” value is listed as 1.621 and the “Subpanel MID^b” value stood at 6.477 µM. For the same compound, where the note is “Ovarian Cancer subpanel”, the “Selectivity ratio (MID^a:MID^b)” value was determined as 0.772 and the “Subpanel MID^b” value turned out to be 13.591 µM. For the same compound, for the setting “Prostate Cancer subpanel”, the “Selectivity ratio (MID^a:MID^b)” value was found to be 1.959 and the “Subpanel MID^b” value amounted to 5.360 µM. Besides, for the setting “Renal Cancer subpanel”, the “Selectivity ratio (MID^a:MID^b)” value amounted to 1.648 and the “Subpanel MID^b” value stood at 6.370 µM.

The record behind these values is patent publication US20150197492A1, “NOVEL INDENO[1,2-c]QUINOLIN-11-ONE DERIVATIVES, PREPARATION METHOD AND APPLICATION THEREOF” (National Defense Medical Center, priority 2014, published 2015).
